Reference: ChEMBL document CHEMBL3885861, “Open TG-GATES”

Organism: Rattus norvegicus
Assay: Open TG-GATES - Regimen: Daily Repeat
Assay type: toxicity, organism-based, Sprague-Dawley
Set-up: regimen Daily Repeat, gender Male, age 6 weeks
Details: in vivo, po, 300 mg/kg, route gavage, dose level High; for APTT / Bas / Eos / Fbg / Hb / Ht / Lym / MCH / MCHC / MCV / Mono / Neu / PT / Plat / RBC / Ret / WBC: tissue Blood; for KIDNEY_L / KIDNEY_R / KIDNEY_TOTAL: tissue Kidney; for LIVER: tissue Liver; for A/G / ALP / ALT / AST / BUN / CRE / Ca / Cl / DBIL / GLC / IP / K / LDH / Na / PL / RALB / TBIL / TC / TG / TP / gamma-GTP: tissue Plasma

## CCOC(=O)C(C)(C)Oc1ccc(Cl)cc1 [CLOFIBRATE]
72 h, time 3 day
  TERMINAL_BW: 242 g
  APTT: 20.5 s
  Bas: 0%
  Eos: 1%
  Fbg: 199.2 mg/dL
  Hb: 13.2 g/dL
  Ht: 37.7%
  Lym: 73.8%
  MCH: 21 pg
  MCHC: 34.9%
  MCV: 60.3 fL
  Mono: 3.2%
  Neu: 21.8%
  PT: 12.3 s
  Plat: 125.3 x10_4/uL
  RBC: 625.4 x10_4/ul
  Ret: 3.9%
  WBC: 91.3 x10_2/uL
  KIDNEY_L: 1.1 g
  KIDNEY_R: 1.1 g
  KIDNEY_TOTAL: 2.2 g
  LIVER: 14.9 g
  A/G: 1.9
  ALP: 928.8 IU/L
  ALT: 42 IU/L
  AST: 70.2 IU/L
  BUN: 14.2 mg/dL
  CRE: 0.4 mg/dL
  Ca: 10.6 mg/dL
  Cl: 101.8 meq/L
  DBIL: 0.06 mg/dL
  GLC: 200.4 mg/dL
  IP: 5.9 mg/dL
  K: 3.9 meq/L
  LDH: 220.2 IU/L
  Na: 140.6 meq/L
  PL: 102.2 mg/dL
  RALB: 3.5 g/dL
  TBIL: 0.1 mg/dL
  TC: 43.6 mg/dL
  TG: 46.6 mg/dL
  TP: 5.3 g/dL
  gamma-GTP: 0.8 IU/L
[…], time 7 day
  TERMINAL_BW: 267.7 g
  APTT: 21.4 s
  Bas: 0%
  Eos: 0.6%
  Fbg: 212.8 mg/dL
  Hb: 13.3 g/dL
  Ht: 38.9%
  Lym: 81.4%
  MCH: 20.9 pg
  MCHC: 34.3%
  MCV: 61.1 fL
  Mono: 3.2%
  Neu: 14.4%
  PT: 12.3 s
  Plat: 132.7 x10_4/uL
  RBC: 639.6 x10_4/ul
  Ret: 5.1%
  WBC: 129.1 x10_2/uL
  KIDNEY_L: 1.1 g
  KIDNEY_R: 1.2 g
  KIDNEY_TOTAL: 2.3 g
  LIVER: 18 g
  A/G: 2.1
  ALP: 1006.8 IU/L
  ALT: 31.4 IU/L
  AST: 62.8 IU/L
  BUN: 17.2 mg/dL
  CRE: 0.4 mg/dL
  Ca: 10.7 mg/dL
  Cl: 102 meq/L
  DBIL: 0.058 mg/dL
  GLC: 214.2 mg/dL
  IP: 7.4 mg/dL
  K: 3.5 meq/L
  LDH: 285 IU/L
  Na: 141.2 meq/L
  PL: 92.2 mg/dL
  RALB: 4 g/dL
  TBIL: 0.1 mg/dL
  TC: 37.6 mg/dL
  TG: 44.2 mg/dL
  TP: 5.9 g/dL
  gamma-GTP: 1 IU/L
[…], time 14 day
  TERMINAL_BW: 303.4 g
  APTT: 21.9 s
  Bas: 0%
  Eos: 0.6%
  Fbg: 187.4 mg/dL
  Hb: 13.6 g/dL
  Ht: 39.6%
  Lym: 78.8%
  MCH: 19.9 pg
  MCHC: 34.4%
  MCV: 57.8 fL
  Mono: 3.4%
  Neu: 16.8%
  PT: 12.5 s
  Plat: 115.9 x10_4/uL
  RBC: 684.8 x10_4/ul
  Ret: 3.9%
  WBC: 125.1 x10_2/uL
  KIDNEY_L: 1.3 g
  KIDNEY_R: 1.3 g
  KIDNEY_TOTAL: 2.6 g
  LIVER: 19.3 g
  A/G: 2.2
  ALP: 750.6 IU/L
  ALT: 41.8 IU/L
  AST: 59.6 IU/L
  BUN: 17.6 mg/dL
  CRE: 0.4 mg/dL
  Ca: 10.5 mg/dL
  Cl: 101.4 meq/L
  DBIL: 0.062 mg/dL
  GLC: 228.2 mg/dL
  IP: 6.1 mg/dL
  K: 3.8 meq/L
  LDH: 172 IU/L
  Na: 140.4 meq/L
  PL: 113.2 mg/dL
  RALB: 4 g/dL
  TBIL: 0.1 mg/dL
  TC: 44 mg/dL
  TG: 46.4 mg/dL
  TP: 5.9 g/dL
  gamma-GTP: 0.8 IU/L
[…], time 28 day
  TERMINAL_BW: 368.7 g
  APTT: 22 s
  Bas: 0%
  Eos: 1%
  Fbg: 187.6 mg/dL
  Hb: 14.6 g/dL
  Ht: 41.5%
  Lym: 80.2%
  MCH: 19.1 pg
  MCHC: 35.1%
  MCV: 54.4 fL
  Mono: 3.4%
  Neu: 15.2%
  PT: 12.3 s
  Plat: 109.1 x10_4/uL
  RBC: 762.4 x10_4/ul
  Ret: 2%
  WBC: 121.5 x10_2/uL
  KIDNEY_L: 1.5 g
  KIDNEY_R: 1.6 g
  KIDNEY_TOTAL: 3.1 g
  LIVER: 21.8 g
  A/G: 1.9
  ALP: 787 IU/L
  ALT: 43.4 IU/L
  AST: 70.8 IU/L
  BUN: 15.4 mg/dL
  CRE: 0.4 mg/dL
  Ca: 10.2 mg/dL
  Cl: 101.8 meq/L
  DBIL: 0.068 mg/dL
  GLC: 190 mg/dL
  IP: 5.1 mg/dL
  K: 3.6 meq/L
  LDH: 208.6 IU/L
  Na: 140.4 meq/L
  PL: 120.6 mg/dL
  RALB: 4 g/dL
  TBIL: 0.1 mg/dL
  TC: 46 mg/dL
  TG: 47.6 mg/dL
  TP: 6.1 g/dL
  gamma-GTP: 0.6 IU/L
